Patent US7655659B2, “Biomimetic of Evodia rutaecarpa fruit extract for amelioration of inflammation” (Applied Genetics Incorporated Dermatics, priority 2004, dated 2010)
Like-named read-outs stand apart in the source and are kept apart here.

Legend:
HaCaT cells = assay: Inhibition of UVB-induced PGE2 secretion from HaCaT keratinocytes (PGE2 ELISA); type: cell-based; conditions: for μg/ml to inhibit 80% of PGE2 secretion: UVB-irradiated HaCaT cells
Procedure: The HaCaT keratinocyte cell line was cultured in GibcoBRL (Grand Island, N.Y.) D-MEM low glucose medium containing 10% heat inactivated fetal bovine serum, 1% penicillin/streptomycin, 1% L-glutamine, and 1% nonessential amino acids. […] The media was harvested 24 hours after UVB irradiation and analyzed for prostaglandin E2 (PGE2) content using a PGE2 ELISA kit (R & D Systems Catalogue Number DE0100).
The observation that the selectivity of the Evodia rutaecarpa extract (216, see Example 1) was greater than the selectivity of purified BHT (87, Table 3) led us to conclude that there is synergy among the components in inhibiting COX-2. Initial data is consistent with this synergy existing also in the biomimetic of the present invention. The ability of BHT to inhibit PG secretion from UVB-irradiated HaCaT cells was examined by treating cells with BHT immediately after UVB irradiation. The media was harvested 24 hours later and analyzed for PGE2 content using a PGE2 ELISA kit (R & D Systems, Minneapolis, Minn., USA). BHT inhibited UVB-induced PG secretion at 2-20 μg/ml, which is in the range of the IC50 for inhibition of COX-2 in vitro.
The preferred Evodia mixture of Table 4 was examined for its ability to inhibit UVB-induced PGE2 secretion from HaCaT cells. […] This illustrates the discovery that the Evodia rutaecarpa extract contains a compound which blocks this activity and that when the inhibitor is removed the components act synergistically to inhibit UVB-induced PGE2. The preferred Evodia mixture was also effective at inhibiting the COX-2 enzyme in vitro. […] Thus, while the Evodia mixture is useful for inhibiting UVB-induced PGE2 secretion from skin cells when used at 0.01% (v/v) (FIG. 4), for inflammatory conditions mediated exclusively by COX-2, the preferred formulation would contain at least 1% (v/v) Evodia mixture.

COX-2 = target: T1, COX-2 (Homo sapiens, UniProt P35354); assay: In vitro purified COX-2 enzyme assay (Cayman COX Inhibitor Screening Assay); type: biochemical; conditions: for IC50: in vitro
T1 construct: purchased Cayman, Ann Arbor, Mich
T1 sequence (P35354 18-604): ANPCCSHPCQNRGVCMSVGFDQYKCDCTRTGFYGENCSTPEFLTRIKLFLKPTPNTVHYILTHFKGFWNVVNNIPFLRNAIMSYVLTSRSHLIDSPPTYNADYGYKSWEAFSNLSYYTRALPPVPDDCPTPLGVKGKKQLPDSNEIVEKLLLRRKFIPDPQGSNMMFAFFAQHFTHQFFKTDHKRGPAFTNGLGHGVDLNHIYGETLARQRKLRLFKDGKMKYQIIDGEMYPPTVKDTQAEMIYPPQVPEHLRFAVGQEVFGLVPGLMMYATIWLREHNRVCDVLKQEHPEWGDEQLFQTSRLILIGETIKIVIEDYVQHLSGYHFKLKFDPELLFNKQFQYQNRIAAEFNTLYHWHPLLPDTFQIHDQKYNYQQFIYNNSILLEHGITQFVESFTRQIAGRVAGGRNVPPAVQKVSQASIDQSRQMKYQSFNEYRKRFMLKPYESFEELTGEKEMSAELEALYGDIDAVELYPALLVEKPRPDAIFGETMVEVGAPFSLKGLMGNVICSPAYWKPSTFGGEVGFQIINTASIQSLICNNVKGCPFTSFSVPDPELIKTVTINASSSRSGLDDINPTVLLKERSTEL
Procedure: It is well known that the major source of inducible prostaglandin release from cells is related to induction of cyclo-oxygenase 2 (COX-2). […] The assay was a commercially available COX Inhibitor Screening Assay (Cayman, Ann Arbor, Mich.) run according to the manufacturer's instructions.
Fractions were analyzed for COX-2 inhibitory activity using the in vitro assay employed in the previous example.

COX-1 = target: T2, COX-1 (Ovis aries, UniProt P05979); assay: In vitro COX-1 enzyme assay
T2 sequence (P05979 25-600): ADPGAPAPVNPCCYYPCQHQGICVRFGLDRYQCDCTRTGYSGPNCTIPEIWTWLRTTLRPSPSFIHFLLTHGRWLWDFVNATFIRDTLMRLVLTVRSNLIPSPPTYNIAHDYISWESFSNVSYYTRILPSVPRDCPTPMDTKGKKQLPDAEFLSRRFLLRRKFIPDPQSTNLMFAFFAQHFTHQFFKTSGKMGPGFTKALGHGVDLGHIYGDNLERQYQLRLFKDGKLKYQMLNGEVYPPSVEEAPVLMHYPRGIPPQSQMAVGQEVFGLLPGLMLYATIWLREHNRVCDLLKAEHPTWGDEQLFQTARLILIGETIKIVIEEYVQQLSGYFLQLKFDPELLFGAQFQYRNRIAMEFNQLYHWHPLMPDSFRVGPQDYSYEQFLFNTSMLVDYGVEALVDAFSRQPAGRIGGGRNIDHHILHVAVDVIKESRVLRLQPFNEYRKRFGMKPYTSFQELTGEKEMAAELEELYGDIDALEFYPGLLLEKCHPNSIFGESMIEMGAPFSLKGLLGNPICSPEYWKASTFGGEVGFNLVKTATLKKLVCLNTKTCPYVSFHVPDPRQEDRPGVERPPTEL

human skin = assay: Methyl nicotinate-induced erythema in human skin (Dermaspectrometer); type: in vivo; conditions: hydrogel lotion; Evodia mixture 1% (v/v) = 60.8 μg/ml actives, bisabolol 61 μg/ml
Procedure: Each application area was demarked by an adjacent label made with a permanent black ink marker. One hour prior to the methyl nicotinate challenge dose, the Evodia mixture lotion was applied liberally to treatment spots. A Carbopol® hydrogel lotion containing no Evodia mixture was used as a vehicle control. […] Immediately thereafter, 10 μL of a 0.14 mg/ml methyl nicotinate solution in water was applied to each treatment spot. Erythema was read 15, 30, 60 and 90 minutes later. […] Results for all the subjects were calculated as change of erythema readings from time zero.
The same protocol as described above was followed with five sites treated twice daily for two weeks. Three sites were treated with test articles of 0.1%, 0.3% and 1.0% (v/v) Evodia mixture in hydrogel lotion, one site was treated with a vehicle control lotion and one site was not treated with either lotion or methyl nicotinate.
A side by side comparison was made between the Evodia mixture and bisabolol, each formulated in a hydrogel lotion, with bisabolol equal to the total amount of actives in the Evodia mixture.

[1] = tested on: normal human epidermal keratinocytes (NHEK); assay: Prostaglandin secretion from cultured skin cells treated with methyl nicotinate (PGD2 and PGE2 ELISA); type: cell-based; conditions: NHEK and also HMVEC, 125 to 1000 μM
Procedure: (§1) Normal human epidermal keratinocytes (NHEK) and human microvascular endothelial cells (HMVEC) were obtained from a commercial supplier (Cascade Biologics, Portland, Oreg., USA) and cultured according to the manufacturer's recommendations. Methyl nicotinate was made up as a IM stock solution in H2O. The stock solution was diluted to 100 mM in H2O. The 100 mM methyl nicotinate was further diluted to 125 to 1000 μM methyl nicotinate in the cell culture media and the NHEK and HMVEC cells were treated when they had grown to approximately 70% confluency with fresh media containing the methyl nicotinate. After 24 hours of incubation in the methyl nicotinate media, the cultured media was collected. Nitric oxide was measured using the Greiss reagents as described in the Calbiochem colorimetric nitric oxide assay kit (Calbiochem, San Diego, Calif.). PGs in the cell culture media were analyzed using commercially available PGD2 and PGE2 ELISA kits (R & D Systems, Minneapolis, Minn., USA). […] This is in accordance with studies on human skin showing that erythema induced by topical application of methyl nicotinate is mediated by PGD2 (Morrow et al., 1992). […] Since NO is a vasodilatory agent that induces skin erythema, methyl nicotinate can thus induce skin erythema by induction of NO as well as via induction of PGD2 and PGE2. […]

[2] = tested on: human microvascular endothelial cells (HMVEC); assay: Nitric oxide release from endothelial cells treated with methyl nicotinate (Greiss reagents); type: cell-based; conditions: 24 hours; at much lower concentrations than for PGD2 and PGE2 (FIG. 5B)
Procedure: as §1

[3] = read-out: IC50 COX-2 (converted)

In the case of `Cc1cc(C(C)(C)C)c(O)c(C(C)(C)C)c1` [Butylated Hydroxytoluene (BHT), butylated hydroxytoluene], the “concentration inhibiting UVB-induced PG secretion” value (HaCaT cells; cells treated immediately after UVB, media harvested 24 hours later) is reported as 2 to 20 µg/mL, the IC50 (COX-2; [3]) is reported as 68.1 µM and the “Selectivity COX-1/COX-2” value (COX-2; ratio of IC50s) is reported as 87. For the same molecule, the IC50 (COX-1) was 5900 µM.

With `C[C@H]1[C@H](C)CC[C@]2(C(=O)O)CC[C@]3(C)C(=CC[C@@H]4[C@@]5(C)CC[C@H](O)C(C)(C)[C@@H]5CC[C@]43C)[C@H]12` [Ursolic Acid (URA), ursolic acid] the IC50 (COX-2; [3]) was 59.1 µM.

In the case of `CC(C)=CCC[C@](C)(O)C1CC=C(C)CC1` (stereo partly drawn) [bisabolol], the “effect on methyl nicotinate mediated erythema, side by side comparison” value (human skin) is reported as “ineffective”.

`C[n+]1c2n(c(=O)c3ccccc31)CCc1c-2[nH]c2ccccc12` [dehydroevodiamine] was tested, and the IC50 (COX-2; read-out: μg/ml to inhibit 50% of COX-2 activity) was over 24.8 µM.

For `COC(=O)c1cccnc1` [methyl nicotinate], the PGD2 secretion ([1]; 24 hours (FIG. 5A)) was “induced”, the PGE2 secretion ([1]; 24 hours (data not shown)) was “induced” and the “NO secretion from HMVEC” value [2] was “induced”.

In the case of `O=c1c2ccccc2nc2n1CCc1c-2[nH]c2ccccc12` [rutaecarpine], the “μg/ml to inhibit 80% of PGE2 secretion” value (HaCaT cells) is reported as 0.3 µg/mL.

In the case of evodiamine, the “μg/ml to inhibit 80% of PGE2 secretion” value (HaCaT cells) is reported as 0.3 µg/mL.
